According to paper PMC10934261, “Designing Potent Anti-Cancer Agents: Synthesis and Molecular Docking Studies of Thieno[2,3-d][1,2,4]triazolo[1,5-a]pyrimidine Derivatives” (Molecules, 2024):

Experiments:
[1] = system: human breast MCF-7 cancer cell line; experiment: In vitro cytotoxic screening (MTT assay), MCF-7; assay type: cell-based; conditions: for IC50: Homo sapiens, MCF7, MCF-7, 48 h incubation, mean of three values, read-out: IC50 (Mean ± SD) MCF-7; for Percentage cytotoxicity on MCF-7: average ± standard deviation
Method: (§1) Using human breast MCF-7, colorectal HCT-116, and prostate PC-3 cancer cell lines, preliminary antiproliferative effectiveness of cyclopenta[4,5]thieno[2,3-d][1,2,4]triazolo[1,5-a]pyrimidin-9(6H)-ones 4–16 was established in vitro through MTT assay at different concentrations (100, 50, 25 and 12.5 μM) (Figure 2).
(§2) The cell lines were obtained from Karolinska Center, Department of Oncology and Pathology, Karolinska Institute and Hospital, Stockholm, Sweden. as follows: human breast MCF-7, colorectal HCT-116 and prostate PC-3 cancer cell lines and human skin normal BJ-1 cell line. Exponentially, cells were cultured at a concentration of 10^4 cells/well for 24 h, afterwards fresh medium containing different concentrations of the tested samples was added. Serial two-fold dilution of the tested samples were added using a multichannel pipette. Moreover, all cells were cultivated at 37 °C, 5% CO2 and 95% humidity. Also, incubation of control cells occurred at 37 °C. However, after incubation for 24 h different concentrations of samples (100, 50, 25 and 12.5 µM) were added and the incubation was continued for 48 h, then crystal violet solution 1% was added to each well for 0.5 h to examine the presence of viable cells. After rinsing the wells using water until stain free, 30% glacial acetic acid was added to all wells with shaking the plates on a Microplate reader (TECAN, Inc.) to measure the absorbance at a wavelength of 490 nm. The cytotoxicity was estimated by IC50 in μM, which is the concentration that inhibits 50% of growth of cancer cells. […]
(§3) 1.1. In vitro cytotoxic screening
(§4) The cell lines were obtained from Karolinska Center, Department of Oncology and Pathology, Karolinska Institute and Hospital, Stockholm, Sweden. as follows: human breast MCF-7, colorectal HCT-116 and prostate PC-3 cancer cell lines and human skin normal BJ-1 cell line. Exponentially, cells were placed in 10^4 cells/ well for 24 h, and then add fresh medium which containing different concentration of the tested sample. Serial two-fold dilution of the tested sample were added using a multichannel pipette. Moreover, all cells were cultivated at 37 °C, 5% CO2 and 95% humidity. Also, incubation of control cells occurred at 37 °C. However, after incubation for 24 h different concentrations of sample (100, 50, 25 and 12.5 µM) were added and continued the incubation for 48 h, then, add the crystal violet solution 1% to each well for 0.5 h to examine viable cells. Rinse the wells using water until no stain. After that, add 30% glacial acetic acid to all wells with shaking plates on Microplate reader (TECAN, Inc.) to measure the absorbance, using a test wavelength of 490 nm. Besides, compare the treated samples with the control cell. The cytotoxicity was estimated by IC50 in (μ M), the concentration that inhibits 50% of growth of cancer cell. […]
(§5) The molecular docking simulation of the promising in vitro screened cyclopenta[4,5]thieno[2,3-d][1,2,4]triazolo[1,5-a]pyrimidin-9(6H)-ones 10b and 10e against EGFR and PI3K was done using the Molecular Operating Environment software (MOE-Dock) version 2014.0901. The co-crystallized structures of EGFR and PI3K kinases complexed with their native ligands, erlotinib and quinolone LXX, were downloaded from the protein data bank (PDB codes: 1M17 and 3L54, respectively). All minimizations were performed using MOE until an RMSD gradient of 0.05 kcal∙mol−1Å−1 with MMFF94x force field and the partial charges were automatically calculated. Preparation of the enzyme structures was done for molecular docking using Protonate 3D protocol with the default options in MOE. London dG scoring function and Triangle Matcher placement method were used in the docking protocol. Initially, the original ligands were re-docked into the active binding site of EGFR and PI3K kinases to assess the root-mean-square deviation values. Then, the docking studies of the newly targeted […]

[2] = system: human colorectal HCT-116 cancer cell line; experiment: In vitro cytotoxic screening (MTT assay), HCT-116; assay type: cell-based; conditions: for IC50: Homo sapiens, HCT-116, 48 h incubation, mean of three values, read-out: IC50 (Mean ± SD) HCT-116; for Percentage cytotoxicity on HCT-116: average ± standard deviation
Method: as §1, §2, §3, §4, §5

[3] = system: human skin normal cell line (BJ-1); experiment: Cytotoxicity on normal cells (MTT assay), BJ-1; assay type: cell-based; conditions: for IC50: Homo sapiens, BJ-1 normal skin cells, 48 h incubation, mean of three values, read-out: IC50 (Mean ± SD) BJ-1; for Percentage cytotoxicity on normal BJ1 human skin fibroblast cell line: average ± standard deviation
Method: It can therefore be concluded that 10b presents a safer cytotoxicity profile than 10e.
as §2, with “However, after incubation for 24 h different concentrations of samples (100, 50, 25 and 12.5 µM) were added and the incubation was continued for 48 h, then crystal violet solution 1% was added to each well for 0.5 h to examine the presence of viable cells.” left out
as §3
The cell lines were obtained from Karolinska Center, Department of Oncology and Pathology, Karolinska Institute and Hospital, Stockholm, Sweden. as follows: human breast MCF-7, colorectal HCT-116 and prostate PC-3 cancer cell lines and human skin normal BJ-1 cell line. Exponentially, cells were placed in 10^4 cells/ well for 24 h, and then add fresh medium which containing different concentration of the tested sample. Serial two-fold dilution of the tested sample were added using a multichannel pipette. Moreover, all cells were cultivated at 37 °C, 5% CO2 and 95% humidity. Also, incubation of control cells occurred at 37 °C. […]
Rinse the wells using water until no stain. After that, add 30% glacial acetic acid to all wells with shaking plates on Microplate reader (TECAN, Inc.) to measure the absorbance, using a test wavelength of 490 nm. Besides, compare the treated samples with the control cell. The cytotoxicity was estimated by IC50 in (μ M), the concentration that inhibits 50% of growth of cancer cell. […]
as §5, with “targeted compounds were estimated within the ATP-binding sites after elimination of the co-crystallized” for “targeted”
Percentage cytotoxicity of 100 µM of the compounds on human tumor cell lines*

[4] = system: human prostate PC-3 cancer cell line; experiment: In vitro cytotoxic screening (MTT assay), PC-3; assay type: cell-based; conditions: for IC50: Homo sapiens, PC-3, 48 h incubation, mean of three values, read-out: IC50 (Mean ± SD) PC-3; for Percentage cytotoxicity on PC-3: average ± standard deviation
Method: as §1, §2, §3, §4, §5

Row | melting point | Structure (SMILES) | IC50 [1] | IC50 [2] | IC50 [3] | IC50 [4] | Percentage cytotoxicity on MCF-7 ([1]; 12.5 µM) | Percentage cytotoxicity on MCF-7 ([1]; 25 µM) | Percentage cytotoxicity on MCF-7 ([1]; 50 µM) | Percentage cytotoxicity on MCF-7 ([1]; 100 µM) | Percentage cytotoxicity on HCT-116 ([2]; 12.5 µM) | Percentage cytotoxicity on HCT-116 ([2]; 25 µM) | Percentage cytotoxicity on HCT-116 ([2]; 50 µM) | Percentage cytotoxicity on HCT-116 ([2]; 100 µM) | Percentage cytotoxicity on normal BJ1 human skin fibroblast cell line ([3]; 12.5 µM) | Percentage cytotoxicity on normal BJ1 human skin fibroblast cell line ([3]; 25 µM) | Percentage cytotoxicity on normal BJ1 human skin fibroblast cell line ([3]; 50 µM) | Percentage cytotoxicity on PC-3 ([4]; 12.5 µM) | Percentage cytotoxicity on PC-3 ([4]; 25 µM) | Percentage cytotoxicity on PC-3 ([4]; 50 µM) | Percentage cytotoxicity on PC-3 ([4]; 100 µM) | further results
1 |  | COc1cccc2c1C(=O)c1c(O)c3c(c(O)c1C2=O)C[C@@](O)(C(=O)CO)C[C@@H]3O[C@H]1C[C@H](N)[C@H](O)[C@H](C)O1 [Doxorubicin, reference compound] | 40 ± 3.9 µM | 20.5 ± 2.1 µM | 49.2 ± 1.08 µM | 6.8 ± 1.2 µM |  |  |  |  |  |  |  |  |  |  |  |  |  |  |  | 
2 | 101 to 103 °C | O=c1c2c3c(sc2nc2[nH]c(-c4c5ccccc5cc5ccccc45)nn12)CCC3 [Compound 10e, 2-(Anthracen-9-yl)-3,6,7,8-tetrahydro-9H-cyclopenta[4,5]thieno[2,3-d][1,2,4]triazolo[1,5-a]pyrimidin-9-one] | 14.5 ± 0.3 µM | 57 ± 0.61 µM | 34.8 ± 4.5 µM | 25.2 ± 0.4 µM | 37.9±6.7% | 85.6±3.6% | 97.9±1.2% | 98.3±0.5% | 0.0±0.005% | 19.0±4.9% | 34.9±2.8% | 86.7±4.4% | 13.8±2.1% | 44.8±1.9% | 58.1±3.2% | 29.6±3.8% | 56.6±1.3% | 64.2±1.1% | 75.9±1.3% | Percentage cytotoxicity on normal BJ1 human skin fibroblast cell line ([3]; 100 µM): 83.9±1.2%
3 | 268 to 270 °C | O=c1c2c3c(sc2nc2[nH]c(-c4ccc(Br)cc4)nn12)CCC3 [Compound 10b, 2-(4-Bromophenyl)-7,8-dihydro-3H-cyclopenta[4,5]thieno[2,3-d][1,2,4]triazolo[1,5-a]pyrimidin-9(6H)-one] | 19.4 ± 0.22 µM |  | 222 ± 30 µM |  | 30.3±4.3% | 64.4±2.2% | 80.8±2.8% | 86.4±10% | 6.2±0.9% | 14.3±1.7% | 15.0±2.5% | 24.4±6.6% | 16.8±8.3% | 34.2±7.4% | 34.6±3.8% | 10.9±5.2% | 18.4±1.7% | 22.1±0.6% | 41.4±0.7% | Percentage cytotoxicity on normal BJ1 human skin fibroblast cell line ([3]; 100 µM): 39.3±7.7%
4 | > 300 °C | O=c1c2c3c(sc2nc2nc([C@@H](O)[C@@H](O)[C@H](O)[C@H](O)CO)[nH]n12)CCC3 [Compound 11c, 2-((1R,2R,3R,4R)-1,2,3,4,5-pentahydroxypentyl)-1,6,7,8-tetrahydro-9H-cyclopenta[4,5]thieno[2,3-d][1,2,4]triazolo[1,5-a]pyrimidin-9-one] |  |  |  |  | 0.0±0.005% | 0.0±0.005% | 16.5±2.1% | 38.7±1.5% | 12.7±1.7% | 19.5±3.7% | 22.3±0.9% | 20.6±5.4% |  |  |  | 0.0±0.005% | 0.0±0.005% | 0.0±0.005% | 8.5±4.5% | 
